Series [1] in a line: PI value by isoelectrofocusing (capillary electrophoresis). It counts as physicochemical. The conditions noted are these: peptide 5 μg, UV 214 nm. The protocol:
Further, the PI value was analyzed by the isoelectrofocusing method for the peptide 5 μg using a capillary electrophoretic apparatus (Beckman P/ACE 5000) and an isoelectrofocusing kit (eCAP 3-10, Beckman). The detection was carried out by UV 214 nm.

Series [2] deals with rats. Kind of series: Passive avoidance test, administration 180 min before retention test. It counts as in vivo. To be noted: rat, s.c., administered 3 hr before retention test. The protocol:
The test solution in which each of these test drugs dissolved in saline was subcutaneously administered to rats. As to animals, male Wister rats (aged 7-9 weeks) were bought from Japan Charles River (JCR) and used after the preliminary feeding for more than one week. At the time of the preliminary feeding it lighted up from AM 8.00 to PM 8.00.
It was carried out by partially modifying the method of Ader R. R. (Psycon. Sci., 26, p125-128, 1972). Namely, rats were let stay in a light room of the passive avoidance test apparatus consisting of a light and dark rooms, and were let move freely for 2 min. After 45 min., the rats were let stay again in the light room. When the rats went into the dark room, the electric current 0.3 mA was applied for 30 sec. by Muromachikikai SGS-002 on the floor of the dark room. Further, in all processes of the experiment the rats were let move freely between the dark room and the light room. Each peptide was subcutaneously administered at 23 hr. (1 hr. before the retention test) after the electric shock. Subsequently, the rats were let stay in the light room after 1 hr. (24 hr. after the electric shock), the time (latency) when the rats went into the dark room was measured (retention test).
The test was carried out according to the test 2 except that the administration of the test solution was made at 21 hr. […]

A short description of series [3]: Evaluation of brain transition (CNS distribution after i.v. administration). The conditions noted are these: mouse, in vivo, iv. The protocol:
C-AVP 4-9-000 (389 Ci/mmol) labeled with ^125I by the chloramine-T method was administered (i.v.) to mice in 1 μCi, ^125I-C-AVP 4-9-000 in plasma was quantitated by separating the methanol extract using Radio-HPLC.
In the case of AS22, the radioactivity contained in the trifluoroacetic acid precipitate fraction was made the ^125I-AS22 amount. Further, ^125I-C-AVP 4-9-000 was quantitated by separating the methanol extract using Radio-HPLC.

Series [4] is classed as in vitro ADME, rat. On the procedure:
C-AVP 4-9 series compound can be hydrolyzed in brain by the action of prolyl endopeptidase, and it is considered that they are converted to AVP 4-9.
Therefore, 500 μM of C-AVP 4-9-000 were incubated (6 hr., 37° C.) with a rat cerebral homogenate (100 μg/rat) in the presence or in the absence of carbobenzoyloxy prolyl-prolinal (ZPP, 20 μM) as known as a potent inhibitor for propyl endopeptitase. After incubation metabolites were extracted with methanol. The metabolites were analyzed by HPLC. Further, ZPP is a specific inhibitor for prolyl endopeptidase. After methanol extraction, the metabolites were quantitated by the separation with HPLC.

Where a SMILES comes first, the peptide text is derived from it. [ ]: non-standard residue; d: D form. The star is where a group is joined. X1 = N=C(N)NCCC[C@H](N)C(=O)N[C@@H](Cc1c[nH]cn1)C(=O)N1CCC[C@H]1C(=O)N[C@@H](CS*)C(=O)O; pGlu = O=C1CC[C@@H](C(=O)O)N1

“pGlu-Asn-Cys-Pro-Arg-Gly-NH2 ([pGlu]NCPRG-NH2) [AVP 4-9, 4-9 fragment of arginine vasopressin, control drug]” had a PI values in series [1] of 9.27. In addition, the “effectiveness in passive avoidance (latency)” value in series [2] is reported as “did not show any significant effectiveness”.

For `N=C(N)NCCC[C@H](NC(=O)[C@@H]1CCCN1C(=O)[C@H](CSSC[C@H](NC(=O)[C@@H]1CCCN1C(=O)[C@H](Cc1c[nH]cn1)NC(=O)[C@@H](N)CCCNC(=N)N)C(=O)O)NC(=O)[C@H](CC(N)=O)NC(=O)[C@@H]1CCC(=O)N1)C(=O)NCC(N)=O` [C-AVP 4-9-000] ([pGlu]NC(X1)PRG-NH2), the transition into brain entry in series [3] is “transited into brain in a sufficient concentration”. The “formation of AVP 4-9 after 6 hour's incubation” value in series [4] was “the formation of AVP 4-9 was observed”. The “parent remaining after 6 hour's incubation” value in series [4] (rat, brain homogenate, 6 h) was “scarcely remained”.

Source of the values: patent US6589937B1, “Peptides and nootropic agent” (Kabushiki Kaisha Yakult Honsha, priority 1996, dated 2003).
